Like-named read-outs stand apart in the source and are kept apart here.
Columns and labels:
Type in all cases: in vivo
[1] = test system: silverleaf whitefly (Bemisia argentifolii Bellows and Perring); test: Test A: silverleaf whitefly control on cotton or soybean plants, spray, insect mortality after 13 days; details: Bemisia argentifolii, applied alone, read-out: % Mortality (obs)
Procedure, shortened: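 Cotton (12–14-day) or soybean (5–7-day) plants carrying whitefly eggs were sprayed with compound in 10% acetone/water with non-ionic surfactant. Plants were held 13 days at 28°C and 50–70% RH; mortality was averaged over three replicates. Mixture enhancement was judged against Colby-expected values.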

[2] = test system: Western Flower Thrips (Frankliniella occidentalis Pergande); test: Test B: Western Flower Thrips control on bean plants, plant damage rating converted to % plant protection after 7 days; details: for pest or weed control at 2.93 ppm / pest or weed control at 16.1 ppm / pest or weed control at 11.1 ppm / pest or weed control at 36.8 ppm: Frankliniella occidentalis, 168 h, read-out: Plant Protection (obs); for Plant Damage (obs): Table 3a; for Plant Damage (obs) / Plant Protection (obs): applied alone
Procedure, shortened: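 Sprayed 5- to 7-day-old bean (var. Soleil) plants, 3 replicates, dried 1 h, then infested with 22 to 27 adult thrips and held 7 days at 25° C, 45-55% RH. Feeding damage rated 0-10 and converted as 100−(rating×10) to % plant protection.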

[3] = test system: Potato Leafhopper (Empoasca fabae Harris); test: Test C: Potato Leafhopper control on bean plants, insect mortality after 6 days; details: read-out: % Mortality (obs)
Procedure, shortened: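 Sprays (3 replicates) were applied to 5- to 6-day-old Longio bean plants with one primary leaf excised, which were dried 1 h and infested with 5 adult leafhoppers (18–21 days old). Mortality was scored after 6 days at 19-21° C and 50-70% RH. Mixture enhancement was judged against expected mortality by Colby's equation.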

[4] = test system: corn planthopper (Peregrinus maidis (Ashmead)); test: Test C: corn planthopper control on corn plants, insect mortality after 6 days; details: Peregrinus maidis, read-out: % Mortality (obs)
Protocol: (§1) The pest control protection afforded by the mixtures or compositions is not limited, however, to these species. The analysis of enhanced activity between the mixtures or compositions was determined using Colby's equation. The average % mortality data for the test compounds alone were inserted into the Colby's equation. If the observed (obs) average % mortality was higher than “p”, the expected (exp) % mortality, the mixture or composition had enhanced effects. If the observed average % mortality was equal to or lower than the expected mortality, the mixture or composition either had no enhanced effect. For bioassays where insect feeding damage was evaluated, enhanced activity is identified when the observed plant damage is less than the expected plant damage rating; ratings ranged between 0 (no damage) and 10 (dead plant) and each value was converted to a % plant protection. 100−(Obs Plant Damage*10)
For evaluating control of corn planthopper (Peregrinus maidis (Ashmead)) through contact and/or systemic means, the test unit consisted of a small open container with a 3-4-day-old corn (maize) plant inside. White sand was added to the top of the soil prior to application of the test compound.
Test compounds were formulated and sprayed at 250 and/or 50 ppm and/or 10 ppm. After spraying of the formulated test compound, the test units were allowed to dry for 1 h before they were post-infested with ˜15-20 nymphs (18-to-21-day-old). […]

[5] = test system: fall armyworm (Spodoptera frugiperda (J. E. Smith)); test: Test E: fall armyworm control on corn plants, plant damage rating and mortality after 6 days; details: Spodoptera frugiperda, 144 h, read-out: Plant Protection (obs)
Protocol: as §1
For evaluating control of fall armyworm (Spodoptera frugiperda (J. E. Smith)) the test unit consisted of a small open container with a 4-5-day-old corn (maize) plant inside. This was pre-infested with 10-15 1-day-old larvae on a piece of insect diet. Test compounds were formulated and sprayed with 3 replications as described for Test A. After spraying of the formulated test compound, the test units were maintained in a growth chamber for 6 days at 25° C. and 70% relative humidity. Plant feeding damage was then visually assessed based on foliage consumed, and larvae were assessed for mortality. Each test unit was then visually assessed for plant damage and rated 0-10, where 0=undamaged and 10=plant is dead; the results are listed in Tables 6d-i.

CC(C)(CS(C)(=O)=O)NC(=O)c1ccc(F)c2nn(-c3cccnc3)cc12 [Cpd 3, N-[1,1-dimethyl-2-(methylsulfonyl)ethyl]-7-fluoro-2-(3-pyridinyl)-2H-indazole-4-carboxamide]
mortality at 50 ppm ([1]; 2 h, Table 2h): 0% | mortality at 250 ppm ([1]; 2 h, Table 2h): 0% | mortality at 50 ppm ([1]; 48 h, Table 2d): 1.2% | mortality at 250 ppm ([1]; 48 h, Table 2d): 1.1% | mortality at 50 ppm ([1]; Table 2a): 25% | mortality at 250 ppm ([1]; Table 2a): 1.6% | mortality at 50 ppm ([1]; Table 2b): 0% | mortality at 250 ppm ([1]; Table 2b): 0% | mortality at 50 ppm ([1]; Table 2c): 16.1% | mortality at 250 ppm ([1]; Table 2c): 26.7% | mortality at 50 ppm ([1]; Table 2e): 1.3% | mortality at 250 ppm ([1]; Table 2e): 1.2% | mortality at 50 ppm ([1]; Table 2f): 21.2% | mortality at 250 ppm ([1]; Table 2f): 25.3% | mortality at 50 ppm ([1]; Table 2g): 18% | mortality at 250 ppm ([1]; Table 2g): 27.7% | pest or weed control at 2.93 ppm ([2]; Table 3e, 2.93 ppm): 83.3% | pest or weed control at 16.1 ppm ([2]; Table 3e, 16.1 ppm): 80% | pest or weed control at 2.93 ppm ([2]; Table 3f, 2.93 ppm): 40% | pest or weed control at 16.1 ppm ([2]; Table 3f, 16.1 ppm): 86.7% | pest or weed control at 2.93 ppm ([2]; Table 3g, 2.93 ppm): 43.3% | pest or weed control at 16.1 ppm ([2]; Table 3g, 16.1 ppm): 70% | Plant Damage (obs) ([2]; 2.93 ppm): 13.3% | Plant Damage (obs) ([2]; 16.1 ppm): 83.3% | Plant Protection (obs) ([2]; Table 3b, 2.93 ppm): 40.0% | Plant Protection (obs) ([2]; Table 3b, 16.1 ppm): 76.7% | Plant Protection (obs) ([2]; Table 3c, 2.93 ppm): 33.3% | Plant Protection (obs) ([2]; Table 3c, 16.1 ppm): 80.0% | mortality at 50 ppm ([3]; Table 4a): 0% | mortality at 250 ppm ([3]; Table 4a): 0% | mortality at 50 ppm ([3]; Table 4b): 13.3% | mortality at 250 ppm ([3]; Table 4b): 0% | mortality at 50 ppm ([3]; Table 4c): 6.7% | mortality at 250 ppm ([3]; Table 4c): 0% | mortality at 50 ppm ([4]; 96 h, Table 4d): 8.3% | mortality at 250 ppm ([4]; 96 h, Table 4d): 0% | mortality at 50 ppm ([4]; Table 4e): 5% | mortality at 250 ppm ([4]; Table 4e): 1.2% | pest or weed control at 50 ppm ([5]; Table 6e): 0% | pest or weed control at 250 ppm ([5]; Table 6e): 0%

CC1(NC(=O)c2cccc3nn(-c4cccnc4)cc23)CC1 [Cpd 4, N-(1-methylcyclopropyl)-2-(3-pyridinyl)-2H-indazole-4-carboxamide]
mortality at 50 ppm ([1]; 2 h, Table 2h): 0.9% | mortality at 250 ppm ([1]; 2 h, Table 2h): 9.2% | mortality at 50 ppm ([1]; 48 h, Table 2d): 4.9% | mortality at 250 ppm ([1]; 48 h, Table 2d): 8.3% | mortality at 50 ppm ([1]; Table 2a): 5.9% | mortality at 250 ppm ([1]; Table 2a): 11.1% | mortality at 50 ppm ([1]; Table 2b): 46.7% | mortality at 250 ppm ([1]; Table 2b): 20% | mortality at 50 ppm ([1]; Table 2c): 16.1% | mortality at 250 ppm ([1]; Table 2c): 20.5% | mortality at 50 ppm ([1]; Table 2e): 29% | mortality at 250 ppm ([1]; Table 2e): 38.3% | mortality at 50 ppm ([1]; Table 2f): 15% | mortality at 250 ppm ([1]; Table 2f): 17.9% | mortality at 50 ppm ([1]; Table 2g): 30.6% | mortality at 250 ppm ([1]; Table 2g): 23.1% | mortality at 50 ppm ([1]; Table 2i): 7% | mortality at 250 ppm ([1]; Table 2i): 8% | pest or weed control at 11.1 ppm ([2]; Table 3e, 11.1 ppm): 60% | pest or weed control at 36.8 ppm ([2]; Table 3e, 36.8 ppm): 76.7% | pest or weed control at 11.1 ppm ([2]; Table 3f, 11.1 ppm): 73.3% | pest or weed control at 36.8 ppm ([2]; Table 3f, 36.8 ppm): 90% | pest or weed control at 11.1 ppm ([2]; Table 3g, 11.1 ppm): 20% | pest or weed control at 36.8 ppm ([2]; Table 3g, 36.8 ppm): 73.3% | pest or weed control at 2.93 ppm ([2]; Table 3d, 2.93 ppm): 50% | pest or weed control at 11.1 ppm ([2]; Table 3d, 11.1 ppm): 60% | pest or weed control at 16.1 ppm ([2]; Table 3d, 16.1 ppm): 86.7% | pest or weed control at 36.8 ppm ([2]; Table 3d, 36.8 ppm): 93.3% | Plant Damage (obs) ([2]; 11.1 ppm): 43.3% | Plant Damage (obs) ([2]; 36.8 ppm): 86.7% | Plant Protection (obs) ([2]; Table 3b, 11.1 ppm): 40.0% | Plant Protection (obs) ([2]; Table 3b, 36.8 ppm): 86.7% | Plant Protection (obs) ([2]; Table 3c, 11.1 ppm): 36.7% | Plant Protection (obs) ([2]; Table 3c, 36.8 ppm): 70.0% | mortality at 50 ppm ([3]; Table 4a): 7.1% | mortality at 250 ppm ([3]; Table 4a): 6.7% | mortality at 50 ppm ([3]; Table 4b): 0% | mortality at 250 ppm ([3]; Table 4b): 14.3% | mortality at 50 ppm ([3]; Table 4c): 26.7% | mortality at 250 ppm ([3]; Table 4c): 0% | mortality at 50 ppm ([4]; 96 h, Table 4d): 0% | mortality at 250 ppm ([4]; 96 h, Table 4d): 9.1% | mortality at 50 ppm ([4]; Table 4e): 38.9% | mortality at 250 ppm ([4]; Table 4e): 34.8% | mortality at 50 ppm ([4]; Table 4f): 1.8% | mortality at 250 ppm ([4]; Table 4f): 10.8% | mortality at 50 ppm ([4]; Table 4g): 1.8% | mortality at 250 ppm ([4]; Table 4g): 10.8% | pest or weed control at 50 ppm ([5]; Table 6e): 0% | pest or weed control at 250 ppm ([5]; Table 6e): 0% | pest or weed control at 50 ppm ([5]; Table 6f): 0% | pest or weed control at 250 ppm ([5]; Table 6f): 0% | pest or weed control at 50 ppm ([5]; Table 6g): 0% | pest or weed control at 250 ppm ([5]; Table 6g): 20% | pest or weed control at 50 ppm ([5]; Table 6i): 0% | pest or weed control at 250 ppm ([5]; Table 6i): 0% | pest or weed control at 50 ppm ([5]; Table 6h): 0% | pest or weed control at 250 ppm ([5]; Table 6h): 20% | pest or weed control at 50 ppm ([5]; Table 6d): 0% | pest or weed control at 250 ppm ([5]; Table 6d): 0%

Reference: patent US12419307B2, “Mixtures comprising indazole pesticides” (FMC Corporation, priority 2019, dated 2025)
